Entries after “also recorded” stand apart in the source; their conditions may differ.
What was measured:
hTLR4 = molecular target: T1, hTLR4 (Homo sapiens, UniProt O00206+Q9Y6Y9); test: Experiment 4: activation of HEK hTLR4 cells pre- and post-sterile filtration, QuantiBlue; format: cell-based; details: post-sterile filtration through 0.22 μm PES filter; max 15 μM GLA, 1:3 serial dilution, 7 dilutions; 24 hours
T1 construct: expressed in transfected cells; host or cells: HEK huTLR4 (HEK hTLR4) cells
T1 sequence (O00206 24-839): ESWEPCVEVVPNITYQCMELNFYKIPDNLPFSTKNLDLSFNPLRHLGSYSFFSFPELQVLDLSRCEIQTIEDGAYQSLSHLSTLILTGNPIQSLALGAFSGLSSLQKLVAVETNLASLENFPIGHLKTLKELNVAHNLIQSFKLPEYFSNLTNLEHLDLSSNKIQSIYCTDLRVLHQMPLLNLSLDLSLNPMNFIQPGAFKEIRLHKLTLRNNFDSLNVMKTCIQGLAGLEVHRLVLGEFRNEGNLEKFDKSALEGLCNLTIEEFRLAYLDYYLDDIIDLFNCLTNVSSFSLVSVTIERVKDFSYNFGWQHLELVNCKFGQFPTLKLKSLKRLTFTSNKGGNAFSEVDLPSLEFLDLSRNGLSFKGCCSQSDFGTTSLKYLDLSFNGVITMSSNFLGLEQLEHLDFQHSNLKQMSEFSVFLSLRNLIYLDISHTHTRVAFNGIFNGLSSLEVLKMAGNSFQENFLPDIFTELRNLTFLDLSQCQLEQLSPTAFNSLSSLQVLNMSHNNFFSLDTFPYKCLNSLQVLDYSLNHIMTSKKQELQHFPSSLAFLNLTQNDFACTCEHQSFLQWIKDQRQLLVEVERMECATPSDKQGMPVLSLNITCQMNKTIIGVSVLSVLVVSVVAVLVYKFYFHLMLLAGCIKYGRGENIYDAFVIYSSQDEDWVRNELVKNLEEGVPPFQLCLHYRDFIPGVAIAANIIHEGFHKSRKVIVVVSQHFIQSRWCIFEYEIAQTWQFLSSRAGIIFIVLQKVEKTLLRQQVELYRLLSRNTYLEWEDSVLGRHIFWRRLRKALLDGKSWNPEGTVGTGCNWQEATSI
T1 sequence (Q9Y6Y9 17-160 limits assumed): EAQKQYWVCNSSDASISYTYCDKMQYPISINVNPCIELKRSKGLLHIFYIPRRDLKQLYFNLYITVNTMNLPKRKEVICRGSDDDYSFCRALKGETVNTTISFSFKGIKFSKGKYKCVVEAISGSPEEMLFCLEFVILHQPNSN
Description: FIG. 4. […] HEK hTLR4 cells were treated with 15 μM of GLA (for each compound tested) with a 1:3 serial dilution for 7 dilutions.
GLA (Avanti Polar Lipids) was resuspended in dimethylsulfoxide (DMSO) at 1 mg/mL. GLA in DMSO was mixed with an aqueous solution of liposomes (L-GLA) or PBS (GLA alone) such that the final DMSO concentration was 2%. DMSO is miscible in aqueous solutions, and allows GLA to condense on the surface of SNAs as the organic solution is diluted. Modulation of GLA functionalized to the surface of liposomes can be achieved by adjusting the ratio of GLA to liposome. The DMSO was removed from the liposomal solution by diafiltration using tangential-flow filtration (TFF) with a hollow fiber filter (750 kDa cut-off). These liposomes which have been surface functionalized with GLA (with a loading of 50 molecules/liposome) may then be further surface modified with other molecules. L-GLA or GLA alone was then sterile filtered through a 0.22 μm PES sterile syringe filter (VWR) to remove any non-functionalized GLA or GLA aggregates. […]
QuantiBlue detection media was purchased from Invivogen. […] After development of color using the standard curve as a reference, the plate was read using a fluorescence plate reader (Synergy 4) at an absorbance of 650 nm.

[1] = Sterile filtration through 0.22 μm PES syringe filter; format: physicochemical; details: 0.22 μm sterile filter; inferred from HEK hTLR4 activity after filtration
Description: GLA (Avanti Polar Lipids) was resuspended in dimethylsulfoxide (DMSO) at 1 mg/mL. GLA in DMSO was mixed with an aqueous solution of liposomes (L-GLA) or PBS (GLA alone) such that the final DMSO concentration was 2%. DMSO is miscible in aqueous solutions, and allows GLA to condense on the surface of SNAs as the organic solution is diluted. Modulation of GLA functionalized to the surface of liposomes can be achieved by adjusting the ratio of GLA to liposome. The DMSO was removed from the liposomal solution by diafiltration using tangential-flow filtration (TFF) with a hollow fiber filter (750 kDa cut-off). These liposomes which have been surface functionalized with GLA (with a loading of 50 molecules/liposome) may then be further surface modified with other molecules. L-GLA or GLA alone was then sterile filtered through a 0.22 μm PES sterile syringe filter (VWR) to remove any non-functionalized GLA or GLA aggregates.
GLA alone was prepared using the same method used to prepare L-GLA but without the presence of liposomes. Free or unbound GLA will aggregate and cannot pass through a sterile filter.

SMILES: CCCCCCCCCCCCCC(=O)O[C@H](CCCCCCCCCCC)CC(=O)N[C@H]1[C@H](OC[C@H]2O[C@H](O)[C@H](NC(=O)C[C@H](O)CCCCCCCCCCC)[C@@H](OC(=O)C[C@H](O)CCCCCCCCCCC)[C@@H]2O)O[C@H](CO)[C@@H](OP(=O)(O)O)[C@@H]1OC(=O)C[C@@H](CCCCCCCCCCC)OC(=O)CCCCCCCCCCCCC.N [GLA alone, glycopyranoside lipid A]
- activation of HEK hTLR4 cells (hTLR4): failed to activate; also recorded: does not
- passage through sterile filter [1]: removed by sterile filtration
